Data taken from US11090308B2, “Methods of treating liver disorders or lipid disorders with a THR-beta agonist” (Madrigal Pharmaceuticals, Inc., priority 2016, dated 2021).
Like-named read-outs stand apart in the source and are kept apart here.

Experiments:
Format in all cases: in vitro ADME
CYP3A4/5 = test: In vitro Cytochrome P-450 enzyme assay, CYP3A4/5
CYP2C8 = biological target: T1, CYP2C8 (Homo sapiens, UniProt P10632); test: In vitro Cytochrome P-450 enzyme assay, CYP2C8; conditions: for IC50: read-out: Inhibitor of: CYP2C8, IC50
T1 sequence (P10632 1-490): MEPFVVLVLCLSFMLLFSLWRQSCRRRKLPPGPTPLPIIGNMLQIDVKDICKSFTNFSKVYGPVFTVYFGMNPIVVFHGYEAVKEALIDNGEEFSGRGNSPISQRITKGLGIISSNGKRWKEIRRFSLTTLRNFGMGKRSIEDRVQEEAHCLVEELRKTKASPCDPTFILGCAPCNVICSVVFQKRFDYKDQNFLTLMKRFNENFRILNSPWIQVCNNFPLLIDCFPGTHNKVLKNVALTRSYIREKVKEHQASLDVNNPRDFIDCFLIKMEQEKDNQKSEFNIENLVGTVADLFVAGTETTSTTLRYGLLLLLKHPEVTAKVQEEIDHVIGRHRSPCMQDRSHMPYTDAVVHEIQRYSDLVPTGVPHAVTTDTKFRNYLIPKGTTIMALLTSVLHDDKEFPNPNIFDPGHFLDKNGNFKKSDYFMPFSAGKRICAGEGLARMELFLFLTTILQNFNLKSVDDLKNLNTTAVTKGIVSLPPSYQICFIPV
Text: (§1) The following studies have been conducted: (a) in vitro drug protein binding, transporter (organic anion transporting polypeptide [OATP], P-glycoprotein [P-gp], breast cancer-related protein [BCRP], and multiple drug resistance protein 1 [MDR1]), and cytochrome P-450 enzyme assays to investigate absorption, distribution, and excretion; (b) in vivo MGL-3196 rat and dog oral PK and bioavailability studies; (c) in vivo ^14C-MGL-3196 rat and dog oral pharmacokinetics, absorption, excretion, and tissue distribution by quantitative whole-body autoradiography (QWBA) studies; and (d) liver disposition of MGL-3196 using an in vitro sandwiched hepatocyte model system (B-CLEAR® technology) in dog (SCDH) and human (SCHH) hepatocytes.

OATP1B3 = biological target: T2, OATP1B3 (Homo sapiens, UniProt Q9NPD5); test: In vitro drug transporter assay, OATP1B3
T2 sequence (Q9NPD5 1-702): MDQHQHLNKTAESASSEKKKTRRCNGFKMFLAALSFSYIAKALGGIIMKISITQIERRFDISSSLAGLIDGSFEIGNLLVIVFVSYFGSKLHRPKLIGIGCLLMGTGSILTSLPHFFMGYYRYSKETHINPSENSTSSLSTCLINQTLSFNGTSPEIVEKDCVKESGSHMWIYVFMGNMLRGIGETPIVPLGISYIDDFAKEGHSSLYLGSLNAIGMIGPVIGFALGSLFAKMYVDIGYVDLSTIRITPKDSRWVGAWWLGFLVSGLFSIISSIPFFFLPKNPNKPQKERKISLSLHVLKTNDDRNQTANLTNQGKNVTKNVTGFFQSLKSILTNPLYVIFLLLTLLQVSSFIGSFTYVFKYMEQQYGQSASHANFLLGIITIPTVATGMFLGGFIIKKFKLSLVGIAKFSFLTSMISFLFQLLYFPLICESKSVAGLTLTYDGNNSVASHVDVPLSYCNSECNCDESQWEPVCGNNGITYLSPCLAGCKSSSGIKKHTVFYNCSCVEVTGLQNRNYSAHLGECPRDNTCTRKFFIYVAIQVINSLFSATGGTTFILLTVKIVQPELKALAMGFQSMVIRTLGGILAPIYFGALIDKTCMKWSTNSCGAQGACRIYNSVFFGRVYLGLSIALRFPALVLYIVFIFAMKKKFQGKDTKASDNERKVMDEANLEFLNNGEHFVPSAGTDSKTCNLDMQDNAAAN
Text: as §1

[1] = system: sandwich-cultured dog hepatocytes (SCDH); test: Hepatobiliary disposition in sandwich-cultured dog hepatocytes (SCDH)
Text: as §1
Parameters determined: • Bile Accumulation=Total Accumulationplus(+)Buffer−Cellular AccumulationMinus(−)Buffer
[formula] • AUC=(Incubation Time)*(Analyte ConcentrationMedia) • In vitro biliary clearance:
[formula] • (Kp ratio reflects the extent of MGL-3196 accumulation in hepatocyte to the total MGL-3196 concentration in the buffer, outside of the hepatocyte).
(§2) MGL-3196 and its metabolite, MGL-3196-M1 (M1), were evaluated in sandwich-cultured human hepatocytes (SCHH) to evaluate the effects of temperature and concentration on total accumulation. Incubations were performed in presence of 4% bovine serum albumin (BSA) for 20 minutes at 37° C. and 4° C. across multiple concentrations (3, 10, 30, and 100 μM). Following the hepatic accumulation study, a species comparison of the hepatobiliary disposition of MGL-3196 (30 μM) and its metabolite, M1, was evaluated in SCHH and sandwich-cultured dog hepatocytes (SCDH) in the presence of 4% BSA.

CYP2D6 = CYP2D6 (Homo sapiens, UniProt P10635); test: In vitro Cytochrome P-450 enzyme assay, CYP2D6
Text: as §1

CYP1A2 = biological target: T3, CYP1A2 (Homo sapiens, UniProt P05177); test: In vitro Cytochrome P-450 enzyme assay, CYP1A2
T3 sequence (P05177 1-516): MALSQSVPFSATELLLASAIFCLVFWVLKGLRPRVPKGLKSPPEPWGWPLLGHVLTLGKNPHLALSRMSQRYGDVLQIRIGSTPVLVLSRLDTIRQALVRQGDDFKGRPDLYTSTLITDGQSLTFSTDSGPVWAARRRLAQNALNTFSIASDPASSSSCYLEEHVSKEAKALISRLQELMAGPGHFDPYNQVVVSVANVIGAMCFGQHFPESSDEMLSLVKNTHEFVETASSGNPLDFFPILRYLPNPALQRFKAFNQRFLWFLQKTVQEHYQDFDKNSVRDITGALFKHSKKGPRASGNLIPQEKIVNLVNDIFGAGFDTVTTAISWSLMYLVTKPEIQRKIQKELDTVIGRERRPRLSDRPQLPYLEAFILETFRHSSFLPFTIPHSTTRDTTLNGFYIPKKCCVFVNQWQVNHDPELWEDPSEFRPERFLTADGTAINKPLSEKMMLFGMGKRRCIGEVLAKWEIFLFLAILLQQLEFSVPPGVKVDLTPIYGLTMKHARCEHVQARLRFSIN
Text: as §1

CYP2C9 = CYP2C9 (Homo sapiens, UniProt P11712); test: In vitro Cytochrome P-450 enzyme assay, CYP2C9; conditions: for IC50: read-out: Inhibitor of: CYP2C9, IC50
[2] = system: sandwich-cultured human hepatocytes (SCHH); test: Effects of temperature and concentration on total accumulation in SCHH
Procedure: as §2

[3] = SCDH, 20 min exposure to MGL-3196 30 μM, 4% BSA

CYP2C9, sequence (P11712 whole entry): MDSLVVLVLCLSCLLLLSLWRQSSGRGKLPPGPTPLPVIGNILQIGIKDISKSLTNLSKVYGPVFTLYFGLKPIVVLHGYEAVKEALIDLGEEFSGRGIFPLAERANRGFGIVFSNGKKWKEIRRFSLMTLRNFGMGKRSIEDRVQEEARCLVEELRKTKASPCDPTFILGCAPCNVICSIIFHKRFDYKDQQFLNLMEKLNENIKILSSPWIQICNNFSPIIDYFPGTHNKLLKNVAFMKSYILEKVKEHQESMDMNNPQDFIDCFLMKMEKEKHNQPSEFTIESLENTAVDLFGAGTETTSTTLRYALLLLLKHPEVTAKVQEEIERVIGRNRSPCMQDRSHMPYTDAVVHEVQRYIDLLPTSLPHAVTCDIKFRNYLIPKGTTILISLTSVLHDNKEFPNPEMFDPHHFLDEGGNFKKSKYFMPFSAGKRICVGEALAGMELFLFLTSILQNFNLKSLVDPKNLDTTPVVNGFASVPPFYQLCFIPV
CYP2D6, sequence (P10635 whole entry): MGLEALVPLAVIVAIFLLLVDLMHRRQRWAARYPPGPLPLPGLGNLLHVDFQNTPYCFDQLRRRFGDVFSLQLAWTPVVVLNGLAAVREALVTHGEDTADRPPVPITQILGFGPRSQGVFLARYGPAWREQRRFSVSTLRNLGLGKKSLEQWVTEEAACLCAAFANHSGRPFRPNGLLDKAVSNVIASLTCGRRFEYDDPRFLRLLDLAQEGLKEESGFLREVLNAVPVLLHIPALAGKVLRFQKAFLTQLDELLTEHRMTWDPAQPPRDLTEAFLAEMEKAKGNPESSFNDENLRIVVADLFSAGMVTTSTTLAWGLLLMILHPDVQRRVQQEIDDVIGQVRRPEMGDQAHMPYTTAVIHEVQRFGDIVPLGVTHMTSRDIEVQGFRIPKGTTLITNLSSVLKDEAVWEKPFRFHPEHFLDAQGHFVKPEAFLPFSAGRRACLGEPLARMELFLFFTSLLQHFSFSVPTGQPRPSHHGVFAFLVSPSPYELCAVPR

With `CC(C)c1cc(Oc2c(Cl)cc(-n3nc(C#N)c(=O)[nH]c3=O)cc2Cl)n[nH]c1=O` [MGL-3196, 2-(3,5-dichloro-4-((5-isopropyl-6-oxo-1,6-dihydropyridazin-3-yl)oxy)phenyl)-3,5-dioxo-2,3,4,5-tetrahydro-1,2,4-triazine-6-carbonitrile] as the compound, how does the “Inhibitor of: CYP3A4/5” value (CYP3A4/5) read?
The value was “not an inhibitor”.

What about the “Substrate for: CYP2C8” value (CYP2C8) of the same compound?
Its value is “CYP2C8;”.

And the IC50 (CYP2C8)?
Its IC50 is 0.9 µM.

And the “Substrate for: OATP1B3” value (OATP1B3)?
The value was “OATP1B3;”.

And the “Inhibitor of: OATP1B3, % inhibition” value (OATP1B3; @ 10 uM Pravastatin)?
The value was “OATP1B3 (57% @ 10 uM Pravastatin)”.

What about the “Total accumulation in SCDH lower than in SCHH” value ([1]; 30 μM, 20-minute exposure) of the same compound?
The value was roughly 81%.

What about the “biliary clearance estimates lower in dog than human hepatocytes” value ([1]; SCDH vs SCHH) of the same compound?
The value was roughly 46%.

What about the “BEI (Biliary Excretion Index)” value [1, 3] of the same compound?
The value was 48.7%.

What about the “Bile Acc.” value [1, 3] of the same compound?
Its value is 86.2 pmol/mg.

And the “Cellular Acc.” value [1, 3]?
The value was 80.3 pmol/mg.

What about the “ClBiliary (in vitro biliary clearance)” value [1, 3] of the same compound?
The value was 0.784 mL/min/kg.

And the “ICC (intracellular concentration)” value [1, 3]?
Its value is 10.4 µM.

What about the Kp [1, 3] of the same compound?
The Kp was 0.348 Ratio.

And the “Total Acc.” value [1, 3]?
The value was 167 pmol/mg.

And the “Inhibitor of: CYP2D6” value (CYP2D6)?
The value was “not an inhibitor”.

And the “Inhibitor of: CYP1A2” value (CYP1A2)?
The value was “not an inhibitor”.

What about the “Substrate for: CYP2C9” value (CYP2C9) of the same compound?
Its value is “CYP2C9;”.

And the IC50 (CYP2C9)?
Its IC50 is 22 µM.

And the “share of total accumulation (hepatocytes+bile) mediated by an active uptake process (temperature-dependent)” value ([2]; 37° C. vs 4° C., 20 minutes, 4% BSA, 3, 10, 30, 100 μM)?
The value was no less than 72.8%.

With `CC(CO)c1cc(Oc2c(Cl)cc(-n3nc(C#N)c(=O)[nH]c3=O)cc2Cl)n[nH]c1=O` (stereo not shown) [MGL-3623] as the compound, how does the IC50 (CYP3A4/5; human, weak, read-out: Inhibitor of: CYP3A4/5, IC50) read?
The IC50 was 35 µM.

And the “Substrate for: CYP2C8” value (CYP2C8)?
Its value is “CYP 2C8”.

What about the IC50 (CYP2C8) of the same compound?
Its IC50 is 6.1 µM.

What about the “Substrate for: OATP1B3” value (OATP1B3) of the same compound?
Its value is “OATP1B3”.

What about the IC50 (OATP1B3; weak, read-out: Inhibitor of: OATP1B3, IC50) of the same compound?
The IC50 was 22.6 µM.

What about the “Cellular Acc.” value [1, 3] of the same compound?
Its value is “BLQ”.

And the “PIS (post incubation supernatant, cell culture media)” value [1, 3]?
Its value is “BLQ”.

What about the “Total Acc.” value [1, 3] of the same compound?
Its value is “BLQ”.

And the IC50 (CYP2D6; read-out: Inhibitor of: CYP2D6, IC50)?
Its IC50 is greater than 50 µM.

What about the IC50 (CYP1A2; read-out: Inhibitor of: CYP1A2, IC50) of the same compound?
Its IC50 is greater than 50 µM.

What about the IC50 (CYP2C9; range given jointly for CYP2B6, CYP2C9, CYP2C19, weak) of the same compound?
The IC50 was 24 to 35 µM.

And the “reduction of accumulation in 4° C. incubations” value ([2]; across all MGL-3196 exposure levels examined)?
Its value is no less than 65%.
